Legend:
Assay type in all cases: cell-based, Influenza A virus (A/Puerto Rico/8/1934(H1N1))
[1] = (§1) Inhibition of Influenza A virus (A/PR 8/34 (H1N1)) hemagglutinin HA1 chain 1324T mutant transfected in human HeLa cells assessed as reduction in low pH-indued polykaryon formation preincubated for 15 mins followed by pH 5.2 buffer addition and measured after 5 mins by giemsa staining based microscopic analysis
[2] = as §1, with “S326V” for “1324T”
[3] = as §1, with “HA2” for “HA1”, “L99F” for “1324T”

Compound `COC(=O)C[C@H](NC(=O)OC(C)(C)C)C(=O)N(Cc1ccc(F)cc1)C1(C(=O)NCc2ccccc2)CCN(Cc2ccccc2)CC1` has an IC50 [1] of 3.2 µM, an IC50 [2] greater than 100 µM and an IC50 [3] greater than 100 µM.

Reference: ChEMBL document CHEMBL4680243, “N-benzyl 4,4-disubstituted piperidines as a potent class of influenza H1N1 virus inhibitors showing a novel mechanism of hemagglutinin fusion peptide interaction” (Eur J Med Chem, 2020)
